Results: patent US7037644B1, “Means and methods for monitoring non-nucleoside reverse transcriptase inhibitor antiretroviral therapy and guiding therapeutic decisions in the treatment of HIV/AIDS” (ViroLogic, Inc., priority 1998, dated 2006)
Entries after “also recorded” stand apart in the source; their conditions may differ.

How the values were obtained:
Assay type in all cases: cell-based, HIV-1
[1] = tested on: RTV-300, patient 97-300 (RT K32N, M184V, Y188L); experiment: Phenotypic susceptibility assay (patient RTV); settings: patient RTV pool
Procedure: (§1) The resistance test vectors containing a functional luciferase gene cassette were constructed and host cells were transfected with the resistance test vector DNA. The resistant test vectors contained patient-derived reverse transcriptase and protease sequences that were either susceptible or resistant to the antiretroviral agents, such as nucleoside reverse transcriptase inhibitors, non-nucleoside reverse transcriptase inhibitors and protease inhibitors. […] The IC50 values were determined by plotting percent drug inhibition vs. log10 drug concentration.
(§2) Host cells were seeded in 10-cm-diameter dishes and were transfected several days after plating with resistance test vector plasmid DNA and the envelope expression vector. […] HIV capsid protein (p24) levels in the harvested cell culture media were determined by an EIA method as described by the manufacturer (SIAC; Frederick, Md.). […] The inhibitory effect of the drug was determined using the following equation: % luciferase inhibition=1−(RLUluc [drug]÷RLUluc)×100 where RLUluc [drug] is the relative light unit of luciferase activity in infected cells in the presence of drug and RLUluc is the Relative Light Unit of luciferase activity in infected cells in the absence of drug. […]

[2] = tested on: RTV-675, patient 98-675 (RT A98G); experiment: Phenotypic susceptibility assay (patient RTV); settings: patient RTV pool
Procedure: as §1, §2

[3] = tested on: G190S-RTV and G190A-RTV (mutation at codon 190); experiment: Phenotypic susceptibility assay (site directed mutant RTV); settings: G190A or G190S vs wild type reference RTV; also statements on codon 190 alone or with 103/101
Procedure: as §1, §2

Row | SMILES | decrease in susceptibility (fold, IC50) [1] | decrease in susceptibility (fold, IC50) [2] [fold] | change in susceptibility [3]
1 | CC(C)Nc1cccnc1N1CCN(C(=O)c2cc3cc(NS(C)(=O)=O)ccc3[nH]2)CC1 [delavirdine] | 25 fold | 2.1 | slightly more susceptible; also recorded: slightly increase susceptibility; also recorded: slight increase
2 | Cc1ccnc2c1NC(=O)c1cccnc1N2C1CC1 [nevirapine] | greater than 800 fold | 6 | markedly less susceptible; also recorded: greatly reduce susceptibility; also recorded: large decrease
